Measurements taken from patent publication US7402683B2, “Cinnamic acid amides” (Bayer HealthCare AG, priority 2002, dated 2008).

Tests used:
[1] = test system: Haemophilus influenzae Spain 7; test: Determination of the minimum inhibitory concentration (MIC), liquid dilution test; format: cell-based; settings: BHI broth plus 20% bovine serum, 10 μg/ml hemin and 1% Isovitale, 37° C., 18-24 hours, 8-10% CO2
Procedure: (§1) Determination of the Minimum Inhibitory Concentration (MIC):
(§2) The MIC is determined in a liquid dilution test. Overnight cultures of the test organisms are diluted to a cell count of 10^5 organisms per ml in Isosensitest medium (Difco, Irvine, USA) and are incubated with dilutions of the test substances (1:2 dilution stages). Exceptions are the tests with S. pneumoniae G9A, which are conducted in BHI broth (Difco) plus 20% bovine serum, and with H. influenzae, which are conducted in BHI broth (Difco) plus 20% bovine serum, 10 μg/ml hemin and 1% Isovitale (Becton Dickinson, N.J., USA).
(§3) The cultures are incubated at 37° C. for 18-24 hours; S. pneumoniae and H. influenzae in the presence of 8-10% CO2.
(§4) The lowest concentration of each substance at which there is no longer any visible bacterial growth is defined as the MIC. The MICs in μmol/1 of some compounds of the invention against a series of test organisms are listed by way of example in the table below.

[2] = test system: Staphylococcus aureus 133; test: as above; format: cell-based; settings: Isosensitest medium, 10^5 organisms per ml, 37° C., 18-24 hours; lowest concentration with no visible bacterial growth
Procedure: as §1, §2, §3, §4

bacteria = settings: described in the literature; cited from earlier work

Compound	MIC Haemophilus influenzae Spain 7 [1] [μmol/1]	MIC Staphylococcus aureus 133 [2] [μmol/1]	antibacterial activity (bacteria)
CC(C)[C@H](NC(=O)C[C@H](NC(=O)/C=C/c1ccsc1)c1ccccc1)C(=O)[C@@H]1C(=O)NC(=O)[C@H]1C [Example 11]	62.5	7.8	
C[C@@H]1C(=O)NC(=O)[C@H]1C(=O)[C@@H](NC(=O)C[C@H](NC(=O)/C=C/c1ccc2c(c1)OCO2)c1ccccc1)C(C)(C)C [Example 2, (2E)-3-(1,3-Benzodioxol-5-yl)-N-{(1S)-3-[((1S)-2,2-dimethyl-1-{[(3R,4S)-4-methyl-2,5-dioxo-3-pyrrolidinyl]carbonyl}propyl)amino]-3-oxo-1-phenylpropyl}-2-propenamide]	31.3	7.8	
CC(C)[C@H](NC(=O)C[C@H](NC(=O)/C=C/c1ccc2c(c1)OCO2)c1ccccc1)C(=O)[C@@H]1C(=O)NC(=O)[C@H]1C [Example 1, (2E)-3-(1,3-Benzodioxol-5-yl)-N-{(1S)-3-[((1S)-2-methyl-1-{[(3R,4S)-4-methyl-2,5-dioxo-3-pyrrolidinyl]carbonyl}propyl)amino]-3-oxo-1-phenylpropyl}-2-propenamide]	31.3	3.9	
C/C=C/C=C/C(=O)N[C@@H](CC(=O)N[C@H](C(=O)[C@@H]1C(=O)NC(=O)[C@H]1C)C(C)C)c1ccccc1 [moiramide B]			having antibacterial activity
C[C@@H]1C(=O)NC(=O)[C@H]1C(=O)[C@@H](NC(=O)C[C@H](NC(=O)/C=C/c1ccc2c(c1)OCO2)c1ccccc1)C1CCCC1 [Example 31, (2E)-3-(2H-Benzo[d]1,3-dioxolan-5-yl)-N-((1S)-2-{N-[(1S)-2-((4S,3R)-4-methyl-2,5-dioxoazolin-3-yl)-1-cyclopentyl-2-oxoethyl]carbamoyl}-1-phenylethyl)prop-2-enamide]	31.3	<1	
C/C=C/C=C/C=C/C(=O)N[C@@H](CC(=O)N[C@H](C(=O)[C@@]1(O)C(=O)NC(=O)[C@H]1C)C(C)C)c1ccccc1 [moiramide C]			inactive
C[C@@H]1C(=O)N(N)C(=O)[C@H]1C(=O)[C@@H](NC(=O)C[C@H](NC(=O)/C=C/c1ccc(C#N)cc1)c1ccccc1)C1CCCC1 [Example 34, (2E)-N-((1S)-2-{N-[(1S)-2-((4S,3R)-1-amino-4-methyl-2,5-dioxoazolidin-3-yl)-1-cyclopentyl-2-oxoethyl]carbamoyl}-1-phenylethyl)-3-(4-cyanophenyl)prop-2-enamide]	7.8	<1	
CC(C)[C@H](NC(=O)CC(NC(=O)/C=C/c1ccc2c(c1)OCO2)c1ccc2ccccc2c1)C(=O)[C@@H]1C(=O)NC(=O)[C@H]1C (some centres unmarked) [Example 92]	15.6	<1	
CC(C)[C@H](NC(=O)CC(NC(=O)/C=C/c1ccc2c(c1)OCO2)c1ccc2c(c1)OCCO2)C(=O)[C@@H]1C(=O)NC(=O)[C@H]1C (stereo partly drawn) [Example 5, (2E)-3-(1,3-Benzodioxol-5-yl)-N-{1-(2,3-dihydro-1,4-benzodioxin-6-yl)-3-[((1S)-2-methyl-1-{[(3R,4S)-4-methyl-2,5-dioxo-3-pyrrolidinyl]carbonyl}propyl)amino]-3-oxopropyl}-2-propenamide]	3.9	7.8	
C/C=C/C=C/C=C/C(=O)N[C@@H](CC(=O)N[C@H](C(=O)[C@@H]1C(=O)NC(=O)[C@H]1C)C(C)C)c1ccccc1 [andrimid]			having antibacterial activity
